Experimental data published in patent publication US9169252B2 (BRISTOL-MYERS SQUIBB COMPANY, priority 2014, dated 2015).
Where a name gives a salt, the structure may show the parent alone. Read-outs that look alike come from different tables or passages of the source.

Test system: TLR2 induced IL-6 in peripheral blood mononuclear cells (PBMCs)
Assay: PBMC TLR2 Induced IL-6 Assay
Assay type: cell-based, human
Conditions: IL-6 by ELISA; for EC50: read-out: Cell EC50; for IC50: read-out: Cell IC50
Procedure: PBMC TLR2 Induced IL-6 Assay
Peripheral blood mononuclear cells (PBMCs) were isolated from human blood containing the anti-coagulant EDTA (2.5 mM) by centrifugation over a FICOLL® gradient. PBMCs (250000 cells/well) were cultured in assay media (RPMI with 10% heat inactivated FCS) with compounds for 30 minutes at 37° C. in a 5% CO2 incubator. Following pretreatment with compounds, cells were stimulated for 5 hours with 10 µg/ml lipoteichoic acid (Invivogen, San Diego, Calif.), a TLR2 agonist. At the end of the culture, plates were centrifuged at 1800 rpm for 10 minutes to pellet the cells.

[1] = Homo sapiens, PBMC, PBMC TLR2 Induced IL-6 Assay, lipoteichoic acid stimulation
[2] = human PBMCs, lipoteichoic acid stimulated
[3] = Homo sapiens, PBMC, human PBMCs, lipoteichoic acid stimulated
[4] = PBMC TLR2 Induced IL-6 Assay, lipoteichoic acid stimulation

CCCNc1cc(-n2ncc3cc(C#N)cnc32)ncc1C(=O)NC[C@@H](F)C(C)(C)O [Example 337]
EC50 [1]: 572 nM | IC50 [1]: 765 nM

CC(C)(O)[C@H](F)CNC(=O)c1cnc(-n2ncc3cc(Cl)cnc32)cc1NC1CCOCC1 [Example 135, (R)-6-(5-chloro-1H-pyrazolo[3,4-b]pyridin-1-yl)-N-(2-fluoro-3-hydroxy-3-methylbutyl)-4-((tetrahydro-2H-pyran-4-yl)amino) nicotinamide]
EC50 [1]: 168 nM

CC(C)Nc1cc(-n2ncc3cc(C#N)cnc32)ncc1C(=O)N[C@H]1CC[C@H](NC(=O)[C@@H](C)O)CC1 [Example 287]
IC50 [1]: 489 nM

CC(C)(O)[C@H](F)CNC(=O)c1cnc(-n2ccc3cc(C#N)cnc32)cc1NC1CCCOC1 (single isomer, unassigned) [Example 7]
EC50 [1]: 477 nM | IC50 [1]: 477 nM

CC(C)Nc1cc(-n2ncc3cc(O)cnc32)ncc1C(=O)NC[C@@H](F)C(C)(C)O [Example 153, (R)—N-(2-fluoro-3-hydroxy-3-methylbutyl)-6-(5-hydroxy-1H-pyrazolo[3,4-b]pyridin-1-yl)-4-(isopropylamino)nicotinamide]
EC50 [1]: 160 nM

CC(C)Nc1cc(-n2ncc3cc(C#N)cnc32)ncc1C(=O)NCC1CCS(=O)(=O)C1 (stereo not drawn) [Example 209]
EC50 [1]: 322 nM

CC(C)Nc1cc(-n2ccc3cc(C#N)cnc32)ncc1C(=O)NC1CCC(C(C)(O)C2CC2)CC1 (stereo not drawn) [Example 444]
EC50 [2]: 186 nM

CC(C)Nc1cc(-n2ccc3cc(C#N)ccc32)ncc1C(=O)N[C@H]1CC[C@H](C(C)(C)O)CC1 [Example 414, 6-(5-Cyano-1H-indol-1-yl)-N-((1R,4R)-4-(2-hydroxypropan-2-yl)cyclohexyl)-4-(isopropylamino)nicotinamide]
EC50 [3]: 188 nM

CC(C)(O)[C@H](F)CNC(=O)c1cnc(-n2ncc3cc(Cl)cnc32)cc1N[C@@H]1C[C@H]1CO (single isomer, unassigned) [Example 646]
IC50 [2]: 393 nM

CC(C)(O)[C@H](F)CNC(=O)c1cnc(-n2ncc3cncnc32)cc1NC1CC1 [Example 134, (R)-4-(cyclopropylamino)-N-(2-fluoro-3-hydroxy-3-methylbutyl)-6-(1H-pyrazolo[3,4-d]pyrimidin-1-yl)nicotinamide]
EC50 [1]: 282 nM

CC(C)(O)[C@H](F)CNC(=O)c1cnc(-n2ncc3cc(C#N)cnc32)cc1N[C@H]1CCOC1 [Example 545, 6-(5-Cyano-1H-pyrazolo[3,4-b]pyridin-1-yl)-N—((R)-2-fluoro-3-hydroxy-3-methylbutyl)-4-(((S)-tetrahydrofuran-3-yl)amino)nicotinamide, TFA salt]
EC50 [3]: 476 nM

CCCNc1cc(-n2ncc3cc(C#N)cnc32)ncc1C(=O)NC[C@@H](F)C(C)(C)O [Example 592]
IC50 [3]: 271 nM

CC(F)CCNc1cc(-n2ncc3cc(C#N)cnc32)ncc1C(=O)NC[C@@H](F)C(C)(C)O (stereo partly drawn) [Example 604]
IC50 [3]: 104 nM

CC(C)(O)[C@H](F)CNC(=O)c1cnc(-n2ccc3cc(C#N)cnc32)cc1NC1CCC(O)C1 (single isomer, unassigned) [Example 25]
EC50 [4]: 22 nM

CC(C)Nc1cc(-n2ncc3cc(Cl)c(N)nc32)ncc1C(=O)NC[C@@H](F)C(C)(C)O [Example 282]
IC50 [1]: 541 nM

COc1cccc(Nc2cc(-n3ccc4cc(C#N)cnc43)ncc2C(=O)NC[C@@H](F)C(C)(C)O)c1 [Example 51, (R)-6-(5-cyano-1H-pyrrolo[2,3-b]pyridin-1-yl)-N-(2-fluoro-3-hydroxy-3-methylbutyl)-4-((3-methoxyphenyl)amino)nicotinamide]
EC50 [1]: 65 nM

CC(C)(O)[C@H](F)CNC(=O)c1cnc(-n2ccc3cc(C#N)cnc32)cc1NC1CCC(O)C1 (single isomer, unassigned) [Example 27]
EC50 [4]: 44 nM

COC(C)(C)[C@H](F)CNC(=O)c1cnc(-n2ccc3cc(C#N)cnc32)cc1NC(C)C [Example 434]
EC50 [3]: 57 nM

CNC(=O)[C@H]1CC[C@H](NC(=O)c2cnc(-n3ccc4cc(C#N)cnc43)cc2NC2CCOCC2)CC1 [Example 86, 6-(5-cyano-1H-pyrrolo[2,3-b]pyridin-1-yl)-N-((trans)-4-(methylcarbamoyl)cyclohexyl)-4-((tetrahydro-2H-pyran-4-yl)amino)nicotinamide]
EC50 [1]: 110 nM

CC(C)(O)[C@H](F)CNC(=O)c1cnc(-n2ncc3cc(C#N)cnc32)cc1NC1CCC(F)C1 (stereo partly drawn) [Example 627]
IC50 [2]: 7 nM

CC(C)(O)[C@H](F)CNC(=O)c1cnc(-n2ccc3cc(C#N)cnc32)cc1NC1CCC(O)C1 (single isomer, unassigned) [Example 24]
EC50 [4]: 30 nM

CC(C)Nc1cc(-n2ccc3cc(C#N)cnc32)ncc1C(=O)N[C@H]1CC[C@](O)(c2ccnn2C)CC1 [Example 173, 6-(5-Cyano-1H-pyrrolo[2,3-b]pyridin-1-yl)-N-((1s,4s)-4-hydroxy-4-(1-methyl-1H-pyrazol-5-yl)cyclohexyl)-4-(isopropylamino)nicotinamide]
EC50 [1]: 81 nM | IC50 [1]: 242 nM

CC(C)(O)[C@H](F)CNC(=O)c1cnc(-n2ccc3cc(C#N)cnc32)cc1NC1CCCC(F)(F)C1O (stereo partly drawn) [Example 111, 6-(5-cyano-1H-pyrrolo[2,3-b]pyridin-1-yl)-4-((3,3-difluoro-2-hydroxycyclohexyl)amino)-N—((R)-2-fluoro-3-hydroxy-3-methylbutyl) nicotinamide]
EC50 [1]: 238 nM

CC(C)(O)[C@H](F)CNC(=O)c1cnc(-n2ncc3cc(C#N)cnc32)cc1N[C@@H]1CCOC1 [Example 544, 6-(5-Cyano-1H-pyrazolo[3,4-b]pyridin-1-yl)-N—((R)-2-fluoro-3-hydroxy-3-methylbutyl)-4-(((R)-tetrahydrofuran-3-yl)amino)nicotinamide, TFA salt]
EC50 (human PBMCs, lipoteichoic acid stimulated, TFA salt): 239 nM

CC(C)Nc1cc(-n2ccc3cc(C#N)cnc32)ncc1C(=O)NC[C@@H](F)C(C)O (single isomer, unassigned) [Example 48]
EC50 [4]: 24 nM

CC(C)Nc1cc(-n2ccc3cc(Cl)cnc32)ncc1C(=O)NC[C@@H](F)C(C)(C)O [Example 76, (R)-6-(5-chloro-1H-pyrrolo[2,3-b]pyridin-1-yl)-N-(2-fluoro-3-hydroxy-3-methylbutyl)-4-(isopropylamino) nicotinamide]
IC50 [1]: 395 nM

CC(O)CCNc1cc(-n2ncc3cc(C#N)cnc32)ncc1C(=O)NC[C@@H](F)C(C)(C)O (single isomer, unassigned) [Example 573]
EC50 [3]: 729 nM | IC50 [2]: 270 nM

CC(C)(O)[C@H](F)CNC(=O)c1cnc(-n2ncc3cc(F)cnc32)cc1NC1CCC(O)C1 (single isomer, unassigned) [Example 610]
EC50 [2]: 166 nM | IC50 [2]: 217 nM

CC(C)Nc1cc(-n2ncc3cc(Cl)cnc32)ncc1C(=O)NC[C@@H](F)C(C)(C)O [Example 137, (R)-6-(5-chloro-1H-pyrazolo[3,4-b]pyridin-1-yl)-N-(2-fluoro-3-hydroxy-3-methylbutyl)-4-(isopropylamino)nicotinamide]
EC50 [1]: 84 nM

CC(Nc1cc(-n2ncc3cc(C#N)cnc32)ncc1C(=O)NC[C@@H](F)C(C)(C)O)C(F)(F)F (stereo partly drawn) [Example 297]
IC50 [1]: 219 nM

CC(C)Nc1cc(-n2ccc3cc(C#N)cnc32)ncc1C(=O)NC[C@@H](F)C(C)O (single isomer, unassigned) [Example 49]
EC50 [4]: 71 nM

CC(C)(O)[C@H](F)CNC(=O)c1cnc(-n2ncc3cc(Cl)cnc32)cc1N[C@@H]1C[C@H]1CO (single isomer, unassigned) [Example 645]
IC50 [2]: 154 nM

CC(C)(O)[C@H](F)CNC(=O)c1cnc(-n2ccc3cc(C#N)cnc32)cc1NC1CCCOC1 (single isomer, unassigned) [Example 8]
EC50 [4]: 695 nM | IC50 [4]: 695 nM

CC(C)(O)[C@H](F)CNC(=O)c1cnc(-n2ccc3cc(C#N)cnc32)cc1N[C@@H]1COC[C@H]1F (single isomer, unassigned) [Example 459]
EC50 [2]: 95 nM | IC50 [2]: 343 nM

CC(C)(O)[C@H](F)CNC(=O)c1cnc(-n2ncc3cc(C#N)cnc32)cc1N[C@@H]1CCOC1 [Example 548]
IC50 [3]: 763 nM | EC50 [2]: 708 nM

CC(C)(O)[C@H](F)CNC(=O)c1cnc(-n2ncc3cc(Cl)cnc32)cc1NC1CC1 [Example 136, (R)-6-(5-chloro-1H-pyrazolo[3,4-b]pyridin-1-yl)-4-(cyclopropylamino)-N-(2-fluoro-3-hydroxy-3-methylbutyl)nicotinamide]
EC50 [1]: 133 nM

CC(C)(O)[C@H](F)CNC(=O)c1cnc(-n2ncc3cc(F)cnc32)cc1NC1CCC(O)C1 (single isomer, unassigned) [Example 609]
EC50 [2]: 485 nM | IC50 [2]: 1440 nM

CC(C)(O)[C@H](F)CNC(=O)c1cnc(-n2ncc3cc(C#N)cnc32)cc1NC1CCC(F)C1 (stereo partly drawn) [Example 625]
IC50 [2]: 210 nM

[2H]C([2H])([2H])OC(C)(C)[C@H](F)CNC(=O)c1cnc(-n2ccc3cc(C#N)cnc32)cc1NC(C)C [Example 442]
EC50 [3]: 42 nM

CC(C)(O)[C@H](F)CNC(=O)c1cnc(-n2ncc3cc(C#N)cnc32)cc1N[C@@H]1CCN(c2ncc(F)cn2)C1 [Example 534]
IC50 [3]: 824 nM | EC50 [2]: 59 nM

CC(C)(O)[C@H](F)CNC(=O)c1cnc(-n2ncc3cc(C#N)cnc32)cc1Nc1ccc(C#N)cc1 [Example 523]
EC50 [3]: 24 nM
